Values quoted from earlier work in patent publication US20200338088A1, “Methods for Treating Neutrophilic Dermatoses with SYK Inhibitors” (Rush University Medical Center, priority 2018, published 2020).

System: rat collagen-induced arthritis model
Details: daily oral dose of 10 mg/kg (10 μg/g), after 7 days

**Q.** Which ankle inflammation does the source give for c1cn2cc(-c3ccc4cn[nH]c4c3)nc(Nc3ccc(N4CCOCC4)cc3)c2n1 [GS-9973, 6-(1H-indazol-6-yl)-N-(4-morpholin-4-ylphenyl)imidazo[1,2-a]pyrazin-8-amine] here?
**A.** significantly inhibited ankle inflammation
